Bounds are passed on as bounds.

One experiment relates to R1.2 (HCT116-RDAC). The experiment can be described thus: MTT based cell survival assay, DAC resistant HCT116 clone R1.2. Also noted: species or system human. Here is the method: (§1) The DAC resistant HCT116 cell lines were developed using two methods.
(§2) The method is primarily based on reduction of yellow colored tetrazolium salt, 3-(4,5-dimethylthiazol-2-yl)-2,5-diphenyltetrazolium bromide (MTT) to insoluble purple colored formazan crystals by NAD(P)H-dependent oxidoreductase enzymes in mitochondria of the viable cell.
(§3) Cells in 80 μL of medium were plated in each of the experimental and the control wells, followed by addition of 20 μL medium with five-fold drug concentration to experimental wells. The wells with medium alone were included alongside as blank for absorbance readings. After 72 h of drug treatment, 10 μL MTT (Sigma-Aldrich) prepared in 1×PBS (5 mg/mL) was added to all wells including blank and control, and incubated until the purple formazan crystals were visible after which 100 μL of detergent (10% SDS, pH: 5.5) was added and the plates were incubated overnight to solubilize the formazan and the cellular material.
(§4) Cross resistance was determined as the fold increase, whereas, the sensitivity was determined as the fold decrease in the IC50 of the drugs for the resistant cell lines compared to their genetically identical drug sensitive counterpart.

A further experiment relates to R1.4 (HCT116-RDAC). Nature of the experiment: MTT based cell survival assay, DAC resistant HCT116 clone R1.4. Also noted: species or system human. How it is done: as §1, §2, §3, §4
A further experiment has as its system R2.1 (HCT116-RDAC). The experiment can be described thus: MTT based cell survival assay, DAC resistant HCT116 clone R2.1. Also noted: species or system human. How it is done: as §1, §2, §3, §4
Another experiment deals with R2.2 (HCT116-RDAC). Nature of the experiment: MTT based cell survival assay, DAC resistant HCT116 clone R2.2. Also noted: species or system human. Here is the method: as §1, §2, §3, §4
Another experiment relates to MCF-7. The experiment can be described thus: MTT based cell survival assay, parental MCF-7. The note with it: Homo sapiens, MCF7, read-out: Mean IC50. How it is done:
To study the mechanism of resistance towards DNA methylation inhibitor, 2′-deoxy-5-azacytidine, we used the human colorectal cancer cell line (HCT116), human promyelocytic leukemia cells (HL-60), and human breast adenocarcinoma cell line (MCF-7) obtained from American Type Culture Collection (Manassas, Va.). The cell lines were cultured in complete growth media (Sigma-Aldrich, St. Louis, Mo.), supplemented with fetal bovine serum (FBS, PAN-Biotech GmbH, Aidenbach, Germany), 100 U/mL penicillin (Biotika, Slovenská L'upča, Slovak Republic) and 50 μg/mL streptomycin (Sigma-Aldrich), and the cultures were maintained at 37° C. and 5% CO2, in a humidified incubator. […]
To determine the IC50 of the epigenetic drugs (Tocris Bioscience, Bristol, United Kingdom), four independent experiments were performed using triplicate wells of 96 well plates. […] The wells with medium alone were included alongside as blank for absorbance readings. […]
as §4

In the next experiment the test system is HCT116-RDAC xenografts. Nature of the experiment: Anti-tumor activity in xenografted mouse model, HCT116-RDAC (clone R1.4). The note with it: HCT116-RDAC xenograft, DAC 2.5 mg/kg i.p., 10 doses, day 0-21. Type of experiment: in vivo, SCID mice. The source says:
For in vivo validation of HCT116 resistance towards DAC and sensitivity of DAC resistant tumors to (+)-JQ1 treatment, we studied the anti-tumor activity of DAC and (+)-JQ1 in HCT116 parental versus a resistant cell clone R1.4 (HCT116_RDAC). Xenografts were established in 11-12 weeks-old female SCID mice, inoculated with 5×10^6 cells, s.c. on both sides of the chest. After 2 weeks, tumors were palpable (average tumor volume 20 mm^3) and mice were assigned into four groups (8 mice/group). Group I: vehicle control for DAC (10:90, DMSO: PBS) and Group II: DAC, 2.5 mg/kg by i.p. injection once a day for 14 days (5 days on, 2 days off), total 10 doses. […] Body weights of the animals were measured daily and tumor volume data were collected twice a week. […]
For determining the anti-tumor activity of the drugs, DAC and (+)-JQ1, tumor volume data for each group were transformed into relative tumor volumes followed by calculation of treatment to control ratio (T/C ratio) for each time point. […] Statistical significance of the data was determined by calculating bootstrap p-value, n=10000, one-sided test of H0: T/C ratio=1, H1: T/C ratio <1 (Jianrong Wu., Journal of Biopharmaceutical Statistics 2010; 20, 954-64). After day 21, statistical significance cannot be measured accurately due to decreased survival of animals in control group. […]

[1] abbreviates: Homo sapiens, HCT-116, 72 h, read-out: Mean IC50.

Turning to `Nc1ncn([C@H]2C[C@H](O)[C@@H](CO)O2)c(=O)n1` [DAC, 2′-deoxy-5-azacytidine], the IC50 with R1.2 (HCT116-RDAC) (setting [1]) was over 100 µM; in the experiment with R1.4 (HCT116-RDAC) (setting [1]), over 100 µM; in the experiment with R2.1 (HCT116-RDAC) (Homo sapiens, HCT-116, R2.1, MTT, 72 h drug treatment), over 100 µM; with R2.2 (HCT116-RDAC) (setting [1]), over 100 µM; in the experiment with MCF-7, 0.238 µM. Also, the “fold change (resistance index)” value in the experiment on R1.2 (HCT116-RDAC) (IC50 R1.2 / IC50 HCT116), in the experiment with R1.4 (HCT116-RDAC) (IC50 R1.4 / IC50 HCT116), in the experiment on R2.1 (HCT116-RDAC) (IC50 R2.1 / IC50 HCT116) and in the experiment on R2.2 (HCT116-RDAC) (IC50 R2.2 / IC50 HCT116) was “(>357) fold” each time. For the same compound, in the experiment with HCT116-RDAC xenografts, the “fold effect (anti-tumor activity, aAUC of T/C ratio)” value was determined as 1.3.

A word on the IC50: it is the concentration at which inhibition is half-maximal.

The values are drawn from patent publication US20180251847A1, “METHOD OF PREDICTING THE TUMOR RESPONSE TO DNA METHYLATION INHIBITORS AND ALTERNATIVE THERAPEUTIC REGIMEN FOR OVERCOMING RESISTANCE” (PALACKY UNIVERSITY, OLOMOUC, priority 2014, published 2018).
